Test results taken from PubChem BioAssay AID1963958 (Molecular Pharmacology Branch, DTP, NCI, 2024).
pIC50: −log10 of the molar value.

Tested on: MDA-MB-231 multicell spheroids, viability
Assay: Anticancer human tumor MDA-MB-231 cell line growth inhibition [PI3K];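 also: spheroids exposed to agents for seven days before reading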;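 as to viability, T/C: percent of vehicle control luminescence with DMSO treated spheroids as 100%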
Conditions: for pIC50: curve of first compound; for viability, T/C: stronger effect = lower value
Outline: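 Complex 3D spheroids (cancer cells + endothelial HUVEC + mesenchymal stem cells); drug pairs of targeted agent x inavolisib/alpelisib/duvelisib/copanlisib; half-log series from ~Cmax, max 10 microM if Cmax unknown; endpoint viability.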

[1] = second compound 0.0316 µM, first compound 0.0316 µM
[2] = second compound 0.0316 µM, first compound 0.1 µM
[3] = second compound 0.0316 µM, first compound 0.316 µM
[4] = second compound 0.0316 µM, first compound 1 µM
[5] = second compound 0.0316 µM, first compound 3.16 µM
[6] = second compound 0.0316 µM, first compound 10 µM
[7] = second compound 0.1 µM, first compound 0.0316 µM
[8] = second compound 0.1 µM, first compound 0.1 µM
[9] = second compound 0.1 µM, first compound 0.316 µM
[10] = second compound 0.1 µM, first compound 1 µM
[11] = second compound 0.1 µM, first compound 3.16 µM
[12] = second compound 0.1 µM, first compound 10 µM
[13] = second compound 0.316 µM, first compound 0.0316 µM
[14] = second compound 0.316 µM, first compound 0.1 µM
[15] = second compound 0.316 µM, first compound 0.316 µM
[16] = second compound 0.316 µM, first compound 1 µM
[17] = second compound 0.316 µM, first compound 3.16 µM
[18] = second compound 0.316 µM, first compound 10 µM
[19] = second compound 1 µM, first compound 0.0316 µM
[20] = second compound 1 µM, first compound 0.1 µM
[21] = second compound 1 µM, first compound 0.316 µM
[22] = second compound 1 µM, first compound 1 µM
[23] = second compound 1 µM, first compound 3.16 µM
[24] = second compound 1 µM, first compound 10 µM
[25] = second compound 3.16 µM, first compound 0.0316 µM
[26] = second compound 3.16 µM, first compound 0.1 µM
[27] = second compound 3.16 µM, first compound 0.316 µM
[28] = second compound 3.16 µM, first compound 1 µM
[29] = second compound 3.16 µM, first compound 3.16 µM
[30] = second compound 3.16 µM, first compound 10 µM
[31] = second compound 10 µM, first compound 0.0316 µM
[32] = second compound 10 µM, first compound 0.1 µM
[33] = second compound 10 µM, first compound 0.316 µM
[34] = second compound 10 µM, first compound 1 µM
[35] = second compound 10 µM, first compound 3.16 µM
[36] = second compound 10 µM, first compound 10 µM

## C#Cc1c(F)ccc2cc(O)cc(-c3ncc4c(N5CC6CCC(C5)N6)nc(OCC56CCCN5CC(F)C6)nc4c3F)c12 (centres undefined) + CC(Nc1ncnc2nc[nH]c12)c1cc2cccc(Cl)c2c(=O)n1-c1ccccc1
Second compound 0.0316 µM
  pIC50: < 5.00
Second compound 0.1 µM
  pIC50: < 5.00
Second compound 0.316 µM
  pIC50: < 5.00
Second compound 1 µM
  pIC50: 5.18
Second compound 3.16 µM
  pIC50: 5.71
Second compound 10 µM
  pIC50: 7.41
[1]
  viability, T/C: 109%
[2]
  viability, T/C: 96.2%
[3]
  viability, T/C: 103%
[4]
  viability, T/C: 94.6%
[5]
  viability, T/C: 89.9%
[6]
  viability, T/C: 61.1%
[7]
  viability, T/C: 101%
[8]
  viability, T/C: 99.1%
[9]
  viability, T/C: 90.6%
[10]
  viability, T/C: 88.3%
[11]
  viability, T/C: 79.5%
[12]
  viability, T/C: 57.7%
[13]
  viability, T/C: 99.2%
[14]
  viability, T/C: 89%
[15]
  viability, T/C: 87.6%
[16]
  viability, T/C: 86.4%
[17]
  viability, T/C: 77.5%
[18]
  viability, T/C: 53.2%
[19]
  viability, T/C: 75.5%
[20]
  viability, T/C: 83.2%
[21]
  viability, T/C: 90.2%
[22]
  viability, T/C: 72.8%
[23]
  viability, T/C: 62.4%
[24]
  viability, T/C: 43.5%
[25]
  viability, T/C: 65.5%
[26]
  viability, T/C: 62.8%
[27]
  viability, T/C: 56.6%
[28]
  viability, T/C: 56.5%
[29]
  viability, T/C: 46.7%
[30]
  viability, T/C: 33.1%
[31]
  viability, T/C: 51.4%
[32]
  viability, T/C: 46.8%
[33]
  viability, T/C: 44.4%
[34]
  viability, T/C: 39.8%
[35]
  viability, T/C: 35.4%
[36]
  viability, T/C: 26.4%

## C=CC(=O)N1CCN(c2nc(=O)n(-c3c(C)ccnc3C(C)C)c3nc(-c4c(O)cccc4F)c(F)cc23)C(C)C1 (centres undefined) + CC(Nc1ncnc2nc[nH]c12)c1cc2cccc(Cl)c2c(=O)n1-c1ccccc1
Second compound 0.0316 µM
  pIC50: < 5.00
Second compound 0.1 µM
  pIC50: < 5.00
Second compound 0.316 µM
  pIC50: < 5.00
Second compound 1 µM
  pIC50: < 5.00
Second compound 3.16 µM
  pIC50: < 5.00
Second compound 10 µM
  pIC50: < 5.00
[1]
  viability, T/C: 104%
[2]
  viability, T/C: 110%
[3]
  viability, T/C: 115%
[4]
  viability, T/C: 134%
[5]
  viability, T/C: 131%
[6]
  viability, T/C: 118%
[7]
  viability, T/C: 111%
[8]
  viability, T/C: 103%
[9]
  viability, T/C: 113%
[10]
  viability, T/C: 132%
[11]
  viability, T/C: 131%
[12]
  viability, T/C: 118%
[13]
  viability, T/C: 101%
[14]
  viability, T/C: 98.7%
[15]
  viability, T/C: 111%
[16]
  viability, T/C: 115%
[17]
  viability, T/C: 133%
[18]
  viability, T/C: 114%
[19]
  viability, T/C: 86.9%
[20]
  viability, T/C: 90.1%
[21]
  viability, T/C: 95.7%
[22]
  viability, T/C: 106%
[23]
  viability, T/C: 108%
[24]
  viability, T/C: 96%
[25]
  viability, T/C: 66.5%
[26]
  viability, T/C: 70.9%
[27]
  viability, T/C: 73.5%
[28]
  viability, T/C: 79.5%
[29]
  viability, T/C: 88.2%
[30]
  viability, T/C: 78.4%
[31]
  viability, T/C: 51%
[32]
  viability, T/C: 52.5%
[33]
  viability, T/C: 55.5%
[34]
  viability, T/C: 59%
[35]
  viability, T/C: 58.5%
[36]
  viability, T/C: 54.6%
